Read-outs that look alike come from different tables or passages of the source.
Columns and labels:
[1] = biological target: T1, human recombinant histamine H2 receptor (Homo sapiens, UniProt P25021); assay: Histamine H2 radioligand binding ([125I]Aminopotentidine)
T1 construct: expressed in transfected cells; host or cells: CHO-K1 cells
Outline: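 Membranes of CHO-K1 cells expressing human H2 receptor incubated with 0.1 nM [125I]aminopotentidine, 120 min, 25 °C, 50 mM phosphate pH 7.4; nonspecific binding defined with 3 μM tiotidine.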

[2] = biological target: T2, human recombinant adrenergic α1D receptor (Homo sapiens, UniProt P25100); assay: Adrenergic α1D radioligand binding ([3H]Prozosin)
T2 construct: expressed in transfected cells; host or cells: HEK-293 cells
T2 sequence (P25100 1-572): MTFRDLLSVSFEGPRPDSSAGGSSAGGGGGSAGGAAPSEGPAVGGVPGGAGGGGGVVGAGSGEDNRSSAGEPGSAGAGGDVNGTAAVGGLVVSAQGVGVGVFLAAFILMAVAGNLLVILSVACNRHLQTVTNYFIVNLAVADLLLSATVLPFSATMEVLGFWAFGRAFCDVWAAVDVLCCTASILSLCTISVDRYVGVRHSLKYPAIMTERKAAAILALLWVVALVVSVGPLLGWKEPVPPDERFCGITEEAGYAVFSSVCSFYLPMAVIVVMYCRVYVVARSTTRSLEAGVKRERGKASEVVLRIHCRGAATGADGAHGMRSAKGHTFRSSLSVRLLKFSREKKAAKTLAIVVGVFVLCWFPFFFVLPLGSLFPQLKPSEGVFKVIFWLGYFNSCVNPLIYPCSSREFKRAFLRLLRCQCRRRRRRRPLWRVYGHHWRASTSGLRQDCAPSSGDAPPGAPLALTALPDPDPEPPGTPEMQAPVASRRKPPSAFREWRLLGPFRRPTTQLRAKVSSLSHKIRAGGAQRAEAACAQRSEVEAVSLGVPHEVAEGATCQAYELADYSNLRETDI
Method: To evaluate in radioligand binding assays the activity of compounds of the invention, human recombinant adrenergic a1D receptor expressed in human embryonic kidney (HEK-293) cells (Kenny, B. A. et al. Br. J. Pharmacol. 115(6):981, 1995) in a 50 mM Tris-HCl buffer, pH 7.4, was used. Compounds of invention were incubated with 0.6 nM [^3H]Prozosin for 60 minutes at 25° C. Non-specific binding was estimated in the presence of 10 μM phentolamine. Receptor proteins were filtered and washed, the filters were then counted to determine [^3H]Prozosin specifically bound. Compounds were screened at 1 μM or lower, using 1% DMSO as vehicle. Biochemical assay results are presented as the percent inhibition of specific binding in Table 4. Adrenergic a2A

[3] = biological target: T3, human recombinant adrenergic α2B receptor (Homo sapiens, UniProt P18089); assay: Adrenergic α2B radioligand binding ([3H]Rauwolscine)
T3 construct: expressed in transfected cells; host or cells: CHO-K1 cells
T3 sequence (P18089 1-450): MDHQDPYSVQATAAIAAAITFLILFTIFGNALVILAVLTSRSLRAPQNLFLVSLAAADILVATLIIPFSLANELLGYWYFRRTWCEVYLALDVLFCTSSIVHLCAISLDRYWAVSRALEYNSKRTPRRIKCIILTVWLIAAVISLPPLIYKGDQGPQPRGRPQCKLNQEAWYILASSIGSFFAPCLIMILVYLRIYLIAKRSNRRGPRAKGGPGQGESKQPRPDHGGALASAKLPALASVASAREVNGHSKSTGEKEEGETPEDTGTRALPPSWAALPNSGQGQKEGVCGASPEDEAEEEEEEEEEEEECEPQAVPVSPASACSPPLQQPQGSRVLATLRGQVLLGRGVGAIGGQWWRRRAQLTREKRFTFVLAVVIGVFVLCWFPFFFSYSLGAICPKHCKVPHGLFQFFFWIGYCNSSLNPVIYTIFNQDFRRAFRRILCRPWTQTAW
Method: To evaluate in radioligand binding assays the activity of compounds of the invention, human recombinant adrenergic α2B receptor expressed in Chinese hamster ovary (CHO-K1) cells (Uhlen S et al. Eur J. Pharmacol. 343(1):93, 1998) in a modified Tris-HCl buffer (50 mM Tris-HCl, pH 7.4, 12.5 mM MgCl2, 1 mM EDTA, 0.2% BSA) was used. Compounds of the invention were incubated with 2.5 nM [^3H]Rauwolscine for 60 minutes at 25° C. Non-specific binding was estimated in the presence of 10 μM Prozosin. Receptor proteins were filtered and washed, the filters were then counted to determine [^3H]Rauwolscine specifically bound. Compounds were screened at 1 μM or lower, using 1% DMSO as vehicle. Biochemical assay results are presented as the percent inhibition of specific binding in Table 4.

[4] = biological target: T4, human recombinant serotonin (5-Hydroxytryptamine) 5-HT2C receptor (Homo sapiens, UniProt P28335); assay: Serotonin 5-HT2C radioligand binding ([3H]Mesulergine); details: for inhibition at 0.003 µM: compound concentration 3 nM; for inhibition at 0.01 µM: compound concentration 10 nM; for inhibition at 0.03 µM: compound concentration 0.03 μM; for inhibition at 0.1 µM: compound concentration 0.1 μM; for inhibition at 0.3 µM: compound concentration 0.3 μM
T4 construct: expressed in transfected cells; host or cells: CHO-K1 cells
T4 sequence (P28335 33-458): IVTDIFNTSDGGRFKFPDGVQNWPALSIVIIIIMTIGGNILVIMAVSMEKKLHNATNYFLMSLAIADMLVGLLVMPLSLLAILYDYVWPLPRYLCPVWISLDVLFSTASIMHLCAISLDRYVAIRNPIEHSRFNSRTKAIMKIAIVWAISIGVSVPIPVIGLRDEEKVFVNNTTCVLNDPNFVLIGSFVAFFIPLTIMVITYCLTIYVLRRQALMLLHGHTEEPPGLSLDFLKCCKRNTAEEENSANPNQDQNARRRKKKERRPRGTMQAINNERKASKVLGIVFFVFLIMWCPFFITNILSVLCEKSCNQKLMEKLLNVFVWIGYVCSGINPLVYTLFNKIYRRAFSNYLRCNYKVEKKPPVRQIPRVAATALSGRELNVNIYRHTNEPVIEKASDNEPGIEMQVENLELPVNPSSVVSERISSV
Method: Compounds of the invention were incubated with 1 nM [^3H]Mesulergine for 60 minutes at 25° C. Non-specific binding was estimated in the presence of 1 μM Mianserin. Receptor proteins were filtered and washed, the filters were then counted to determine [^3H]Mesulergine specifically bound. […] Biochemical assay results are presented as the percent inhibition of specific binding in Table 5.

[5] = 1 μM, inhibition of specific [125I]Aminopotentidine binding, read-out: Binding data (Percentage Inhibition) Histamine Binding (1 μM) H2
[6] = 1 h, read-out: Percent Inhibition of ligand binding Adrenergic (1 μM ligand conc.) α1D
[7] = 1 h, read-out: Percent Inhibition of ligand binding Adrenergic (1 μM ligand conc.) α2B
[8] = 1 h, read-out: Percent Inhibition of ligand binding Serotonin (1 μM ligand concentration) 5-HT2C
[9] = compound concentration 1 μM, read-out: Percentage inhibition of ligand binding to H2 receptor
[10] = compound concentration 1 μM, read-out: Percentage inhibition of ligand binding to Adrenergic α1D receptor
[11] = compound concentration 1 μM, read-out: Percentage inhibition of ligand binding to Adrenergic α2B receptor
[12] = read-out: Percentage inhibition of ligand binding to 5-HT2C receptor
[13] = compound concentration 1 μM, read-out: Percentage inhibition of ligand binding to 5-HT2C receptor

T1 sequence (P25021 whole entry): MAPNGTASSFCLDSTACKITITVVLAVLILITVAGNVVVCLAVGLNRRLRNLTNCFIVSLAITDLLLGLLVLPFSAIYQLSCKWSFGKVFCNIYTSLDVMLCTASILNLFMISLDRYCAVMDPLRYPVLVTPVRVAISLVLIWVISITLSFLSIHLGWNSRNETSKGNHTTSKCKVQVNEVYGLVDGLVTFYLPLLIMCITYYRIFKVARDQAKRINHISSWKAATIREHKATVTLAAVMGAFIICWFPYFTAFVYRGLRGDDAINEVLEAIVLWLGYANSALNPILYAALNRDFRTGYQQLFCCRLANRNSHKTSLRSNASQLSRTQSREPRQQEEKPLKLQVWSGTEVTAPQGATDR

Row | SMILES | inhibition at 1 µM [1, 5] | inhibition at 1 µM [2, 6] | inhibition at 1 µM [3, 7] | inhibition at 1 µM [4, 8] | inhibition at 1 µM [1, 9] | inhibition at 1 µM [2, 10] | inhibition at 1 µM [3, 11] | inhibition at 0.003 µM [4, 12] | inhibition at 0.01 µM [4, 12] | inhibition at 0.03 µM [4, 12] | inhibition at 0.1 µM [4, 12] | inhibition at 0.3 µM [4, 12] | inhibition at 1 µM [4, 13] | Percent Inhibition of ligand binding Serotonin (1 μM ligand concentration) 5-HT2C ([4]; 1 μM ligand concentration)
1 | COc1ccc(C(O)Cn2c3c(c4cc(Cl)ccc42)CCN(C)C3)cc1OC (stereo not drawn) [Compound 70] | 1% | 44% | 77% | 63% |  |  |  |  |  |  |  |  |  | 
2 | CN1CCc2c(n(CC(O)c3ccccc3)c3ccc(Cl)cc23)C1 (stereo not drawn) [Compound 71] | 11% | 58% | 95% | 81% |  |  |  |  |  |  |  |  |  | 
3 | Cc1ccc(C(O)Cn2c3c(c4cc(C)ccc42)CCN(C)C3)cc1 (stereo not drawn) [Compound 72] | 19% | 86% | 105% | 89% |  |  |  |  |  |  |  |  |  | 
4 | CCC1c2c(c3cc(Cl)ccc3n2CCc2ccc(F)cc2)CCN1C (stereo not drawn) [Compound 78] | 33% | 42% | 102% | 101% |  |  |  |  |  |  |  |  |  | 
5 | CCC1c2c(c3cc(Cl)ccc3n2CC(C)(O)c2ccc(F)cc2)CCN1C (stereo not drawn) [Compound 79] | 20% | 17% | 89% | 77% |  |  |  |  |  |  |  |  |  | 
6 | Cc1ccc(CCn2c3c(c4cc(Cl)ccc42)CCN(C)C3C)cn1 (stereo not drawn) [Compound 80] | 18% | 89% | 100% | 79% |  |  |  |  |  |  |  |  |  | 
7 | CC1c2c(c3cc(Cl)ccc3n2CCc2ccc(F)cc2)CCN1C (stereo not drawn) [Compound 81] | 67% | 64% | 102% | 88% |  |  |  |  |  |  |  |  |  | 
8 | C/C(=C\n1c2c(c3cc(Cl)ccc31)CCN(C)C2)c1ccc(F)cc1 [Compound 90, (E)-6-chloro-9-(2-(4-fluorophenyl)prop-1-enyl)-2-methyl-2,3,4,9-tetrahydro-1H-pyrido[3,4-b]indole] | 64% | 62% | 97% | 99% | 64% | 62% | 97% | 22% | 37% | 65% | 82% | 93% | 99% | 
9 | C/C(=C\n1c2c(c3cc(C)ccc31)CCN(C)C2)c1ccc(F)cc1 [Compound 91, (E)-9-(2-(4-fluorophenyl)prop-1-enyl)-2,6-dimethyl-2,3,4,9-tetrahydro-1H-pyrido[3,4-b]indole] | 68% | 73% | 94% | 104% | 68% | 73% | 94% | 22% | 58% | 77% | 87% | 93% | 104% | 
10 | Cc1ccc2c(c1)c1c(n2/C=C/c2ccccc2)CN(C)CC1 [Compound 92] | 50% | 97% | 104% | 96% | 50% | 97% | 104% |  |  |  |  |  | 96% | 
11 | C/C(=C\n1c2c(c3cc(C)ccc31)CCN(C)C2)c1ccc(Cl)cc1 [Compound 97, 9-(2-(4-chlorophenyl)prop-1-enyl)-2,6-dimethyl-2,3,4,9-tetrahydro-1H-pyrido[3,4-b]indole] | 89% | 66% | 96% | 99% |  |  |  |  |  |  |  |  |  | 
12 | C/C(=C\n1c2c(c3cc(Cl)ccc31)CCN(C)C2)c1ccc(Cl)cc1 [Compound 98, 6-chloro-9-(2-(4-chlorophenyl)prop-1-enyl)-2-methyl-2,3,4,9-tetrahydro-1H-pyrido[3,4-b]indole] | 94% | 57% | 87% | 103% |  |  |  |  |  |  |  |  |  | 
13 | C/C(=C\n1c2c(c3cc(Cl)ccc31)CCN(C)C2C)c1ccc(Cl)cc1 (stereo not drawn) [Compound 99, 6-chloro-9-(2-(4-chlorophenyl)prop-1-enyl)-1,2-dimethyl-2,3,4,9-tetrahydro-1H-pyrido[3,4-b]indole] | 62% | 20% | 77% | 97% |  |  |  |  |  |  |  |  |  | 
14 | CCC1c2c(c3cc(Cl)ccc3n2/C=C(\C)c2ccc(Cl)cc2)CCN1C (stereo not drawn) [Compound 100, 6-chloro-9-(2-(4-chlorophenyl)prop-1-enyl)-1-ethyl-2-methyl-2,3,4,9-tetrahydro-1H-pyrido[3,4-b]indole] | 39% | 8% | 53% | 98% |  |  |  |  |  |  |  |  |  | 
15 | C#CCn1c2c(c3cc(Cl)ccc31)CCN(C)C2 [Compound 125, 6-chloro-2,3,4,9-tetrahydro-2-methyl-9-(prop-2-yn1)-1H-pyrido[3,4-b]indole] | 9% | 93% | 67% |  |  |  |  |  |  |  |  |  |  | 74%
16 | CC1c2c(c3cc(Cl)ccc3n2C#Cc2ccc(F)cc2)CCN1C (stereo not drawn) [Compound 128] | 53% | 25% | 94% | 101% |  |  |  |  |  |  |  |  |  | 
17 | CCC1c2c(c3cc(Cl)ccc3n2C#Cc2ccc(F)cc2)CCN1C (stereo not drawn) [Compound 129] | 26% | 10% | 81% | 107% |  |  |  |  |  |  |  |  |  | 
